Laboratory results published in ChEMBL document CHEMBL1157791, “Discovery of GSK1070916, a potent and selective inhibitor of Aurora B/C kinase” (J Med Chem, 2010).
pEC50, pIC50: −log10 of the molar value.

How the values were obtained:
Aurora kinase B = Aurora kinase B (Homo sapiens, UniProt Q96GD4); experiment: Inhibition of human Aurora B by in vitro inhibition assay
Aurora kinase A = target: T1, Aurora kinase A (Homo sapiens, UniProt O14965); experiment: Inhibition of human Aurora A
T1 sequence (O14965 whole entry): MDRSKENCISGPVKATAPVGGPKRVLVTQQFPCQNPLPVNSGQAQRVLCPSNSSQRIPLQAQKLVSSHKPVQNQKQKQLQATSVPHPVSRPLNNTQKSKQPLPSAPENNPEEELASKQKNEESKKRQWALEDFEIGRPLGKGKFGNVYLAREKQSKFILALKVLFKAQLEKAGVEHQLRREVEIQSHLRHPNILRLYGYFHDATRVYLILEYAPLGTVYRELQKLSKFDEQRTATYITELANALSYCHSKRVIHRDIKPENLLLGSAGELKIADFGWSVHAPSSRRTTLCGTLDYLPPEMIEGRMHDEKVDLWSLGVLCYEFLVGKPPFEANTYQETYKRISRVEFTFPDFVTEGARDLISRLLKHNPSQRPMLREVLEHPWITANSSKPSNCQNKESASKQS

A549 [1] = experiment: Antiproliferative activity against human A549 cells after 6 to 7 days by celltiter-glo luminescence assay in absence of 70% human serum albumin; format: functional, cell-based
A549 [2] = experiment: Selectivity ratio of EC50 for human A549 cells in presence of 70% human serum albumin to EC50 for human A549 cells in absence of 70% human serum albumin; format: functional
Homo sapiens = species: Homo sapiens; experiment: Selectivity ratio of IC50 for human Aurora A to IC50 for human Aurora B

Aurora kinase B, sequence (Q96GD4 whole entry): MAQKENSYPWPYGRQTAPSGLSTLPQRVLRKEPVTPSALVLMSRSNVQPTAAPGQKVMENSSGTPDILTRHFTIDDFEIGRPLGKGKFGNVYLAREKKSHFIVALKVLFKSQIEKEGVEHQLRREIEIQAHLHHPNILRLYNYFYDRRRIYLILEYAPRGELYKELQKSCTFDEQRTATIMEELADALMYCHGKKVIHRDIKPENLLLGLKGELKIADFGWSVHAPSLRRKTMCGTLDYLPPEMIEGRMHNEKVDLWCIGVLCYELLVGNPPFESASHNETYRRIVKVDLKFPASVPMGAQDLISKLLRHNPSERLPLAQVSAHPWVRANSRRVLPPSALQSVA

| SMILES | pIC50 (Aurora kinase B) | pIC50 (Aurora kinase A) | pEC50 (A549 [1]) | Ratio EC50 (A549 [2]) | Ratio IC50 (Homo sapiens) |
| --- | --- | --- | --- | --- | --- |
| NC(=O)Cn1cc(-c2ccnc3[nH]ccc23)c(-c2ccc(NC(=O)Nc3ccccc3)cc2)n1 | 7.19 | 5.25 | < 4.70 | – | – |
| CCn1cc(-c2ccnc3[nH]c(CNCCN(C)C)cc23)c(-c2ccc(NC(=O)Nc3ccccc3)cc2)n1 | 6.56 | 5.26 | – | 10 | – |
| CCn1cc(-c2ccnc3[nH]ccc23)c(-c2ccc(NC(=O)N(C)C)cc2)n1 | – | < 5.00 | – | – | – |
| CCn1cc(-c2ccnc3[nH]c(-c4cccc(CN5CCOCC5)c4)cc23)c(-c2ccc(NC(=O)Nc3ccccc3)cc2)n1 | 7.24 | 7.03 | 7.52 | 10 | – |
| CCn1cc(-c2ccnc3[nH]c(-c4ccc(CN(C)C)cc4)cc23)c(-c2ccc(NC(=O)N(C)C)cc2)n1 | 8.44 | 6.29 | 8.22 | – | 156 |
| CCn1cc(-c2ccnc3[nH]c(-c4ccc(CN(C)C)cc4C)cc23)c(-c2ccc(NC(=O)Nc3ccccc3)cc2)n1 | 7.59 | 7.38 | 7.80 | 10 | – |
| O=C(Nc1ccccc1)Nc1ccc(-c2nn(CCCO)cc2-c2ccnc3[nH]ccc23)cc1 | 8.70 | 6.01 | 6.11 | – | – |
| CCn1cc(-c2ccnc3[nH]c(CNCCS(C)(=O)=O)cc23)c(-c2ccc(NC(=O)Nc3ccccc3)cc2)n1 | 7.62 | 6.24 | 4.94 | 10 | – |
| CCn1cc(-c2ccnc3[nH]c(CNCCO)cc23)c(-c2ccc(NC(=O)Nc3ccccc3)cc2)n1 | 7.34 | 5.55 | 4.73 | 10 | – |
| CCNC(=O)Nc1ccc(-c2nn(CC)cc2-c2ccnc3[nH]c(-c4cccc(CN5CCCC5)c4)cc23)cc1 | 8.85 | 7.24 | 8.05 | – | – |
| CCn1cc(-c2ccnc3[nH]c(C(=O)NCCN4CCOCC4)cc23)c(-c2ccc(NC(=O)Nc3ccccc3)cc2)n1 | 8.30 | 6.71 | 6.70 | 10 | – |
| CCn1cc(-c2ccnc3[nH]c(-c4ccc(CN(C)C)cc4)cc23)c(-c2ccc(NC(=O)Nc3ccccc3)cc2)n1 | 7.64 | 7.35 | 8.10 | 10 | – |
| CCn1cc(-c2ccnc3[nH]c(CNCCCN4CCN(C)CC4)cc23)c(-c2ccc(NC(=O)Nc3ccccc3)cc2)n1 | 7.08 | 5.29 | < 4.70 | 10 | – |
| CCn1cc(-c2ccnc3[nH]c(CN(C)C)cc23)c(-c2ccc(NC(=O)Nc3ccccc3)cc2)n1 | 7.24 | 5.77 | 5.36 | 10 | – |
| CCn1cc(-c2ccnc3[nH]c(-c4ccc(CN5CCCC5)cc4)cc23)c(-c2ccc(NC(=O)N(C)C)cc2)n1 | 8.35 | 6.38 | 8.22 | – | – |
| CCn1cc(-c2ccnc3[nH]c(C(=O)NCCN4CCN(C)CC4)cc23)c(-c2ccc(NC(=O)Nc3ccccc3)cc2)n1 | 8.30 | 6.69 | 6.38 | 10 | – |
| CC(C)(C)n1cc(-c2ccnc3[nH]ccc23)c(-c2ccc(NC(=O)Nc3ccccc3)cc2)n1 | 7.30 | 5.09 | 6.32 | – | – |
| CCn1cc(-c2ccnc3[nH]c(-c4cc(CN(C)C)ccc4C)cc23)c(-c2ccc(NC(=O)Nc3ccccc3)cc2)n1 | 7.22 | 6.95 | 6.76 | 10 | – |
| O=C(Nc1ccccc1)Nc1ccc(-c2nn(CC3CCCO3)cc2-c2ccnc3[nH]ccc23)cc1 (stereo unspecified) | 7.01 | 5.21 | – | – | – |
| CCNC(=O)Nc1ccc(-c2nn(CC)cc2-c2ccnc3[nH]c(-c4ccc(CN5CCOCC5)cc4)cc23)cc1 | 8.33 | 7.64 | 7.92 | – | – |
| CCNC(=O)Cn1cc(-c2ccnc3[nH]ccc23)c(-c2ccc(NC(=O)Nc3ccccc3)cc2)n1 | 7.19 | 5.47 | < 4.70 | – | – |
